From patent publication US20040121965A1, “Method of treating resistant tumors” (Wyeth Holdings Corporation, priority 2002, published 2004)
Like-named read-outs stand apart in the source and are kept apart here.

What was measured:
KB-8-5 (MDR1+) = test: Cell survival assay (SRB), KB-8-5 (MDR1+); settings: for IC50: Homo sapiens, MDR1, read-out: In vitro IC50 (nM) KB85
KB-3-1 = test: Cell survival assay (SRB), KB-3-1; format: cell-based, human; settings: Homo sapiens, KB 3-1, KB-3-1 cells (paclitaxel-sensitive parent); read-out: In vitro IC50 (nM) KB-3-1
Description: Cells lines with previously known mechanisms of resistance. […] Res. 8: 207-218,1996); KB-3-1 (parental derived from an epidermoid carcinoma), KB-8.5, KB-V1 (Akiyama S-I, Fojo A, Hanover J A, Pastan I, Gottesman M M. Isolation and genetic characterization of human KB cell lines resistant to multiple drugs. Somatic Cell Mol. Gen., 11: 117-126,1985; Shen D-W, Cardarelli C, Hwang J, Cornwell M, Richert N, Ishii S, Pastan I, Gottesman MM. […] J. Biol. Chem., 261: 7762-7770, 1986); and HL-60 (parental derived from human leukemia) and HL60/AR (McGrath T., Center M. S. Adriamycin resistance in HL60 cells in the absence of detectable P-glycoprotein. Biochem. Res. Commun., 145:1171-1176,1987); A549 and A549.EpoB40 (He L., Yang C.-P.H., Horwitz S. B. Mutations in p-tubulin map to domains involved in regulation of microtubule stability in epothilone-resistant cell lines. Molecular Cancer Therapeutics. 1: 3-10, 2001). HCT-15 human colon carcinoma and DLD-1 human colon carcinoma are obtained from American Tissue Culture Collection. The MX-1W carcinoma is a Wyeth variant orginally obtained as MX-1 breast carcinoma from the National Cancer Institute. Cell lines selected for resistance to Representative Example 129. KB-3-1 cells are selected for resistance to Example 129 by chronically exposing cells to increasing concentrations of Example 129.
2.2. Cell Survival Assay: Standard Pharmacological Test Procedure. The concentration of candidate inhibitor required to inhibit 50% of cell growth (IC50) is done according to previously reported methods. […] Compounds are serially diluted into media as 2× stocks and 100 μl added to cells in duplicate. Compounds are incubated with cells for 3 days. At the end of the incubation period the sulforhodamine B (SRB) assay, which measures protein content as an assessment of cell survival, is performed as described previously (Skehan P, Storeng R, Scudiero D, Monks A, McMahon J, Vistica D, Warren J T, Bokesch H, Kenney S, Boyd MR. New calorimetric cytotoxicity assay for anticancer-drug screening. J Natl Cancer Inst 1990 Jul 4;82(13):1107-12) with some modification as follows. For KB-3-1 cells with 20% FCS, media is gently decanted and replaced with 200 μl of serum-free media mixed with cold 50% TCA for a final concentration of 10% TCA. The plates are incubated for 1 hr at 4° C., followed by washing 5 times in cold distilled water, then air dried overnight. The fixed cells are stained for 10 min with 80 μl of 0.04% SRB solution prepared in 1% glacial acetic acid. Stain is discarded and plates washed 5 times in 1% glacial acetic acid, then air-dried until completely dry. Stained cell product is dissolved in 150 μl of 10 mM Trizma Base and placed on a shaker for 20 minutes until fully dissolved. Absorbance is read on a Victor V multi-label plate reader (Perkin Elmer, Gaithersburg, Md.).

KB-V1 (MDR1++) = test: Cell survival assay (SRB), KB-V1 (MDR1++); settings: for IC50: Homo sapiens
[1] = read-out: In vitro IC50 (nM) KBV1

| SMILES | Ratio KB85/KB (KB-8-5 (MDR1+)) | IC50 (KB-8-5 (MDR1+)) [nM] | IC50 (KB-3-1) [nM] | Ratio KBV1/KB (KB-V1 (MDR1++)) | IC50 (KB-V1 (MDR1++); [1]) [nM] | IC50 (KB-V1 (MDR1++); read-out: In vitro IC50 KBV1) [nM] |
| --- | --- | --- | --- | --- | --- | --- |
| CN[C@@H](C(=O)N[C@H](C(=O)N(C)[C@H](/C=C(\C)C(=O)O)C(C)C)C(C)(C)C)C(C)(C)c1ccccc1C [Example 36, N,β,β,2-Tetramethyl-D-phenylalanyl-N^1-[(1S,2E)-3-carboxy-1-isopropyl-2-butenyl]-N^1,3-dimethyl-L-valinamide] | 2.3 | 13.8 | 6 | 83.5 | 501 |  |
| CN[C@H](C(=O)N[C@H](C(=O)N(C)[C@H](/C=C(\C)C(=O)O)C(C)C)C(C)(C)C)C(C)(C)c1cccc(Br)c1 [Example 37, 3-bromo-N,β,β-trimethyl-L-phenylalanyl-N^1-[(1S,2E)-3-carboxy-1-isopropylbut-2-enyl]-N^1,3-dimethyl-L-valinamide] | 2.3 | 4.1 | 1.8 | 82.2 | 148 |  |
| CN[C@H](C(=O)N[C@H](C(=O)N(C)[C@H](/C=C(\C)C(=O)O)C(C)C)C(C)(C)C)C(C)(C)c1cccc(-c2ccccc2)c1 [Example 39, 3-phenyl-N,β,β-trimethyl-L-phenylalanyl-N^1-[(1S,2E)-3-carboxy-1-isopropylbut-2-enyl]-N^1,3-dimethyl-L-valinamide] | 2.8 | 5.4 | 1.9 | 78.4 | 149 |  |
| CN[C@H](C(=O)N[C@H](C(=O)N(C)[C@H](/C=C(\C)C(=O)O)C(C)C)C(C)(C)C)C(C)(C)c1ccc(Br)cc1 [Example 43, 4-bromo-N,β,β-trimethylphenylalanyl-N^1-[(1S,2E)-3-carboxy-1-isopropyl-2-butenyl]-N^1,3-dimethyl-L-valinamide] | 2.9 | 4.4 | 1.5 | 69.8 | 105 |  |
| CN[C@H](C(=O)N[C@H](C(=O)N(C)[C@H](/C=C(\C)C(=O)O)C(C)C)C(C)(C)C)C(C)(C)c1ccc(C(=O)O)cc1 [Example 45, 4-carboxy-N,β,β-trimethylphenylalanyl-N^1-[(1S,2E)-3-carboxy-1-isopropylbut-2-enyl]-N^1,3-dimethyl-L-valinamide] | 2.3 | 1530 | 680 |  |  | > 3000 |
| CN[C@H](C(=O)N[C@H](C(=O)N(C)[C@H](/C=C(\C)C(=O)O)C(C)C)C(C)(C)C)C(C)(C)c1cccc(OC)c1 [Example 46, 3-Methoxy-N,β,β-trimethylphenylalanyl-N^1-[(1S,2E)-3-carboxy-1-isopropyl-2-butenyl]-N^1,3-dimethyl-L-valinamide] | 1.7 | 5.9 | 3.5 | 64.0 | 224 |  |
| CN[C@H](C(=O)N[C@H](C(=O)N(C)[C@H](/C=C(\C)C(=O)O)C(C)C)C(C)(C)C)C(C)(C)c1cccc(O)c1 [Example 47, 3-Hydroxy-N,β,β-trimethylphenylalanyl-N^1-[(1S,2E)-3-carboxy-1-isopropyl-2-butenyl]-N^1,3-dimethyl-L-valinamide] | 5.4 | 37.5 | 7 | 329.7 | 2310 |  |
| CN[C@H](C(=O)N[C@H](C(=O)N(C)[C@H](/C=C(\C)C(=O)O)C(C)C)C(C)(C)C)C(C)(C)Cc1ccccc1 [Example 48, N,3-Dimethyl-4-phenyl-L-valyl-N^1-[(1S,2E)-3-carboxy-1-isopropyl-2-butenyl]-N^1,3-dimethyl-L-valinamide] | 2.2 | 6 | 2.7 | 81.0 | 219 |  |
| CN[C@@H](C(=O)N[C@H](C(=O)N(C)[C@H](/C=C(\C)C(=O)O)C(C)C)C(C)(C)C)C(C)(C)Cc1ccccc1 [Example 49, N,3-dimethyl-4-phenyl-D-valyl-N^1-[(1S,2E)-3-carboxy-1-isopropyl-2-butenyl]-N^1,3-dimethyl-L-valinamide] | 2.8 | 55 | 20 | 99.8 | 2000 |  |
